Measured values as given in patent publication US8722849B2, “Polypeptides” (Novo Nordisk A/S, priority 2011, dated 2014).
≈ marks a conversion by molar mass, not a printed value. Where two headings read alike, the source gives them in different places. Starred links: 1 amine or outer side, 2 acyl side, 3 side chain; linkers in the order of their positions; H or OH if unused. Positions of bridges follow the written chain, without caps; N, C: chain ends. Residues, ends and D or L forms follow the SMILES beside them. Groups on a side chain read outwards from the residue. *: point of attachment. C20 diacid = O=C(O)CCCCCCCCCCCCCCCCCCC(=O)*; γGlu = O=C(O)[C@H](CCC(=O)[*:2])N[*:1]; AEEA = NCCOCCOCC(=O)O

Test: Assay (IV) determination of solubility
Format: physicochemical
Description: ASSAY (IV)—Determination of Solubility
The polypeptide was dissolved in water at ˜500 nmol/ml and mixed 1:1 with a series of buffers (100 mM glycylglycine pH 3.0, 100 mM glycylglycine pH 4.0, 100 mM glycylglycine pH 5.0, 100 mM bistrispropane pH 6.0, 100 mM bistrispropane pH 6.5, 100 mM bistrispropane pH 7.0, 100 mM bistrispropane pH 7.5, 100 mM bistrispropane pH 8.0). After 18 hours at room temperature the samples were centrifuged and the polypeptide concentration determined by HPLC.

[1] = pH 3, pH 3.0, read-out: Solubility pH 3.0
[2] = pH 4, pH 4.0, 18 hours at room temperature, Table 2, read-out: Solubility pH 4.0
[3] = pH 4, pH 4.0, read-out: Solubility pH 4.0
[4] = pH 5, pH 5.0, read-out: Solubility pH 5.0
[5] = pH 6, pH 6.0, read-out: Solubility pH 6.0
[6] = pH 6.5, pH 6.5, read-out: Solubility pH 6.5
[7] = pH 7, pH 7.0, read-out: Solubility pH 7.0
[8] = pH 7.5, pH 7.5, read-out: Solubility pH 7.5
[9] = pH 8, pH 8.0, read-out: Solubility pH 8.0

Compound	solubility [1] [µM]	solubility [2] [µM]	solubility [3] [µM]	solubility [4] [µM]	solubility [5] [µM]	solubility [6] [µM]	solubility (pH 7, pH 7.0, 18 hours at room temperature, Table 3, read-out: Solubility pH 7.0) [µM]	solubility [7] [µM]	solubility [8] [µM]	solubility [9] [µM]
CC[C@H](C)[C@H](NC(=O)[C@@H]1CCCN1C(=O)CNC(=O)[C@H](Cc1ccccc1)NC(=O)[C@H](CC(N)=O)NC(=O)[C@H](CCCCNC(=O)COCCOCCNC(=O)COCCOCCNC(=O)CC[C@H](NC(=O)CCCCCCCCCCCCCCCCCCC(=O)O)C(=O)O)NC(=O)[C@H](CO)NC(=O)[C@H](CO)NC(=O)[C@H](Cc1c[nH]cn1)NC(=O)[C@@H](NC(=O)[C@H](CC(C)C)NC(=O)[C@H](Cc1ccccc1)NC(=O)[C@H](CCC(=O)O)NC(=O)[C@H](C)NC(=O)[C@H](CC(C)C)NC(=O)[C@H](CCCNC(=N)N)NC(=O)[C@H](CCC(N)=O)NC(=O)[C@@H](NC(=O)[C@H](C)NC(=O)[C@@H]1CSSC[C@H](NC(=O)[C@@H](N)CCCCN)C(=O)N[C@@H](CC(N)=O)C(=O)N[C@@H]([C@@H](C)O)C(=O)N[C@@H](C)C(=O)N[C@@H]([C@@H](C)O)C(=O)N1)[C@@H](C)O)C(C)C)C(=O)N[C@@H](CC(C)C)C(=O)N1CCC[C@H]1C(=O)N[C@@H](CO)C(=O)N[C@H](C(=O)N[C@@H](CC(N)=O)C(=O)N[C@H](C(=O)NCC(=O)N[C@@H](CO)C(=O)N[C@@H](Cc1c[nH]cn1)C(=O)N[C@H](C(=O)N[C@@H](Cc1ccc(O)cc1)C(N)=O)[C@@H](C)O)C(C)C)[C@@H](C)O [Example 127, N-epsilon21-[2-(2-{2-[2-(2-{2-[(S)-4-Carboxy-4-(19-carboxyheptadecanoylamino)butyrylamino]ethoxy}ethoxy)acetylamino]ethoxy}ethoxy)acetyl]-[Glu14,Lys21,Ser29,His35]-pramlintide] (H-KCNTATCATQRLAEFLVHSSK([AEEA-AEEA-γGlu-C20 diacid])NFGPILPSTNVGSHTY-NH2; disulfide 2-7)	> 200	> 200	> 200	> 200	> 200	> 200	> 200	> 200	> 200	> 200
CC[C@H](C)[C@H](NC(=O)[C@@H]1CCCN1C(=O)CNC(=O)[C@H](Cc1ccccc1)NC(=O)[C@H](CC(N)=O)NC(=O)[C@H](CCCCNC(=O)COCCOCCNC(=O)COCCOCCNC(=O)CC[C@H](NC(=O)CCCCCCCCCCCCCCCCCCC(=O)O)C(=O)O)NC(=O)[C@H](CO)NC(=O)[C@H](CO)NC(=O)[C@H](Cc1c[nH]cn1)NC(=O)[C@@H](NC(=O)[C@H](CC(C)C)NC(=O)[C@H](Cc1ccccc1)NC(=O)[C@H](CCC(=O)O)NC(=O)[C@H](C)NC(=O)[C@H](CC(C)C)NC(=O)[C@H](CCCNC(=N)N)NC(=O)[C@H](CCC(N)=O)NC(=O)[C@@H](NC(=O)[C@H](C)NC(=O)[C@@H]1CSSC[C@H](NC(=O)[C@@H](N)CCCCN)C(=O)N[C@@H](CC(N)=O)C(=O)N[C@@H]([C@@H](C)O)C(=O)N[C@@H](C)C(=O)N[C@@H]([C@@H](C)O)C(=O)N1)[C@@H](C)O)C(C)C)C(=O)N[C@@H](CC(C)C)C(=O)N[C@@H](CO)C(=O)N[C@@H](CO)C(=O)N[C@H](C(=O)N[C@@H](CC(N)=O)C(=O)N[C@H](C(=O)NCC(=O)N[C@@H](CO)C(=O)N[C@@H](Cc1c[nH]cn1)C(=O)N[C@H](C(=O)N[C@@H](Cc1ccc(O)cc1)C(N)=O)[C@@H](C)O)C(C)C)[C@@H](C)O [Example 131, N-epsilon21-[2-(2-{2-[2-(2-{2-[(S)-4-Carboxy-4-(19-carboxyheptadecanoylamino)butyrylamino]ethoxy}ethoxy)acetylamino]ethoxy}ethoxy)acetyl]-[Glu14,Lys21,Ser28,Ser29,His35]-pramlintide] (H-KCNTATCATQRLAEFLVHSSK([AEEA-AEEA-γGlu-C20 diacid])NFGPILSSTNVGSHTY-NH2; disulfide 2-7)	> 200	172 (≈ 813 µg/mL)	172 (≈ 813 µg/mL)	150 (≈ 709 µg/mL)	25 (≈ 118 µg/mL)	27 (≈ 128 µg/mL)	–	6 (≈ 28.4 µg/mL)	4 (≈ 18.9 µg/mL)	3 (≈ 14.2 µg/mL)
